target: full-length human His-tagged BTK (Homo sapiens (Human), UniProt Q06187); assay: BTK Assay (HTRF, Cisbio KinEASE-TK); type: biochemical; details: 6 nM BTK, 30 uM ATP, 15 min preincubation
Sequence (Q06187 whole entry): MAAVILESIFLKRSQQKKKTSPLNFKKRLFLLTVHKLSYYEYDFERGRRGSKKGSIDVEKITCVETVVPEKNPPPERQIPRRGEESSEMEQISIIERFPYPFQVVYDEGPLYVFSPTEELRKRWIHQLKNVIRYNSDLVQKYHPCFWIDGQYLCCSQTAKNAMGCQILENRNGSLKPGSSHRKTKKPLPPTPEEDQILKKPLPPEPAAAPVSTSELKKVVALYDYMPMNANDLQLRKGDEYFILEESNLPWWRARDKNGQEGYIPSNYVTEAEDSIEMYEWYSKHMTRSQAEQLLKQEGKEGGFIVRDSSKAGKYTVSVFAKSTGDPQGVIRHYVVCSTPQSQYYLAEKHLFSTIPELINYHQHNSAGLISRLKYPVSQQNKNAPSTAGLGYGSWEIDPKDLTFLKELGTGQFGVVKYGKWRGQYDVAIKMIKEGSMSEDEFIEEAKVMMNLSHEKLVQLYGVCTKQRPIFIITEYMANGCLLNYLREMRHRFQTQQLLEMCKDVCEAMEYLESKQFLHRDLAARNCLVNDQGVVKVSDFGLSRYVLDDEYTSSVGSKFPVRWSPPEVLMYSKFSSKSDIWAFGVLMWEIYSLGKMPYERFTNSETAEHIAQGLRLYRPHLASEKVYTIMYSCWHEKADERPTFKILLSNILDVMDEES
Description: An HTRF assay (Cisbio KinEASE-TK cat #62TKOPEC) was performed to quantitate the ability of test compounds to inhibit BTK mediated phosphorylation of substrate. Assays were assembled in 384 well plates where 6 nM of full-length human His-tagged BTK (Life Technologies cat # PV3587) and test compound at varying concentrations were preincubated for 15 minutes at 28° C. Then, 1 uM of TK substrate-biotin and 30 uM ATP were added and incubated for an additional 30 minutes at 28° C.

IC50	SMILES
0.0075 µM	C=CC(=O)N1CCC2(CC(n3nc(-c4ccc(OCCC)cc4)c(C(N)=O)c3N)C2)C1 (single isomer, unassigned) [Example 125]
2.6 µM	C=CC(=O)N1CCC[C@@H](n2cc(C(N)=O)c(-c3ccc(-c4ccccc4)cc3)n2)C1 [Example 1]
0.033 µM	C=CC(=O)N1CCC[C@@H](n2cc(C(N)=O)c(-c3ccc(OCc4ccccc4)cc3)n2)C1 [Example 2]
0.81 µM	C=CC(=O)N1CCC[C@@H](n2cc(C(N)=O)c(-c3cccc(OCc4ccccc4)c3)n2)C1 [Example 3]
0.014 µM	C=CC(=O)N1CCC[C@@H](n2cc(C(N)=O)c(-c3ccc(Cc4ccccc4)cc3)n2)C1 [Example 9]
5.5 µM	C=CC(=O)N1CCC[C@@H](n2cc(C(N)=O)c(-c3cccc(NS(=O)(=O)c4ccc(C)cc4)c3)n2)C1 [Example 11]
7.8 µM	C=CC(=O)N1CCC[C@@H](n2cc(C(N)=O)c(-c3ccc(-n4nc(C)cc4C)cc3)n2)C1 [Example 14]
0.58 µM	C=CC(=O)N1CCC[C@@H](n2cc(C(N)=O)c(-c3ccc4occc4c3)n2)C1 [Example 16]
4.8 µM	C=CC(=O)N1CCC[C@@H](n2cc(C(N)=O)c(-c3cccc(NS(C)(=O)=O)c3)n2)C1 [Example 17]
0.03 µM	C=CC(=O)N1CCC[C@@H](n2cc(C(N)=O)c(-c3ccc(Oc4ccc(Cl)c(Cl)c4)c(OC)c3)n2)C1 [Example 20]
0.098 µM	C=CC(=O)N1CCC[C@@H](n2cc(C(N)=O)c(-c3ccc(OCc4ccccn4)c(Cl)c3)n2)C1 [Example 21]
0.0076 µM	C=CC(=O)N1CCC[C@@H](n2cc(C(N)=O)c(-c3ccc(Oc4ccccc4)c(OC)c3)n2)C1 [Example 22]
0.01 µM	C=CC(=O)N1CCC[C@@H](n2cc(C(N)=O)c(-c3ccc(Oc4ccccc4)c(F)c3)n2)C1 [Example 23]
0.0094 µM	C=CC(=O)N1CCC[C@@H](n2cc(C(N)=O)c(-c3ccc(Oc4ccccc4)c(Cl)c3)n2)C1 [Example 24]
0.0051 µM	C=CC(=O)N1CCC[C@@H](n2cc(C(N)=O)c(-c3ccc(NC(=O)c4cc5ccccc5n4C)c(OC)c3)n2)C1 [Example 25]
0.022 µM	C=CC(=O)N1CCC[C@@H](n2cc(C(N)=O)c(-c3ccc(NC(=O)c4ccc(C(F)(F)F)cc4F)c(OC)c3)n2)C1 [Example 26]
0.3 µM	C=CC(=O)N1CCC[C@@H](n2cc(C(N)=O)c(-c3ccc(Nc4nc5ccccc5o4)cc3)n2)C1 [Example 27]
0.0032 µM	C=CC(=O)N1CCC[C@@H](n2cc(C(N)=O)c(-c3ccc(Oc4ccccc4)cc3)n2)C1 [Example 29]
0.057 µM	CN(C)C/C=C/C(=O)N1CCC[C@@H](n2cc(C(N)=O)c(-c3ccc(Oc4ccccc4)cc3)n2)C1 [Example 30]
0.08 µM	CC#CC(=O)N1CCC[C@@H](n2cc(C(N)=O)c(-c3ccc(Oc4ccccc4)cc3)n2)C1 [Example 31]
0.15 µM	CC#CC(=O)N1CCC[C@H]1Cn1cc(C(N)=O)c(-c2ccc(Oc3ccccc3)cc2)n1 [Example 32]
0.0097 µM	C=CC(=O)N1CCC[C@H]1Cn1cc(C(N)=O)c(-c2ccc(Oc3ccccc3)cc2)n1 [Example 33]
0.021 µM	C=CC(=O)NCCc1nc(-c2ccc(Oc3ccccc3)cc2)c(C(N)=O)s1 [Example 34]
0.00077 µM	C=CC(=O)N1CC2(CC(n3nc(-c4ccc(Oc5ccccc5)cc4)c(C(N)=O)c3N)C2)C1 [Example 35]
0.23 µM	CN(C)C/C=C/C(=O)N1CCC[C@H]1Cn1cc(C(N)=O)c(-c2ccc(Oc3ccccc3)cc2)n1 [Example 36]

IC50	SMILES
0.038 µM	CN(C)C/C=C/C(=O)N1CC[C@]2(C1)C[C@H](n1cc(C(N)=O)c(-c3ccc(Oc4ccccc4)cc3)n1)C2 [Example 37]
0.013 µM	CC#CC(=O)N1CC[C@]2(C1)C[C@H](n1cc(C(N)=O)c(-c3ccc(Oc4ccccc4)cc3)n1)C2 [Example 38]
0.29 µM	C=CC(=O)NCCn1cc(C(N)=O)c(-c2ccc(Oc3ccccc3)cc2)n1 [Example 39]
0.064 µM	C=CC(=O)N1CCC(Cn2cc(C(N)=O)c(-c3ccc(Oc4ccccc4)cc3)n2)C1 (stereo not shown) [Example 42]
0.051 µM	CC#CC(=O)N1CCC(Cn2cc(C(N)=O)c(-c3ccc(Oc4ccccc4)cc3)n2)C1 (stereo not shown) [Example 43]
0.001 µM	C=CC(=O)NCCn1nc(-c2ccc(Oc3ccccc3)cc2)c(C(N)=O)c1N [Example 44]
0.01 µM	C=CC(=O)N1CCCC(Cn2cc(C(N)=O)c(-c3ccc(Oc4ccccc4)cc3)n2)C1 (stereo not shown) [Example 45]
0.01 µM	C=CC(=O)N1CCC(Cn2cc(C(N)=O)c(-c3ccc(Oc4ccccc4)cc3)n2)CC1 [Example 47]
0.09 µM	CC#CC(=O)N1CCCC(Cn2cc(C(N)=O)c(-c3ccc(Oc4ccccc4)cc3)n2)C1 (stereo not shown) [Example 48]
0.18 µM	CC#CC(=O)N1CCC(Cn2cc(C(N)=O)c(-c3ccc(Oc4ccccc4)cc3)n2)CC1 [Example 49]
0.003 µM	C=CC(=O)N1CCC[C@H]1Cc1nc(-c2ccc(Oc3ccccc3)cc2)c(C(N)=O)s1 [Example 50]
0.0017 µM	C=CC(=O)N1CCC[C@@H](c2nc(-c3ccc(Oc4ccccc4)cc3)c(C(N)=O)s2)C1 [Example 51]
0.018 µM	CC#CC(=O)N1CCC[C@@H](c2nc(-c3ccc(Oc4ccccc4)cc3)c(C(N)=O)s2)C1 [Example 52]
0.014 µM	CC#CC(=O)N1CCC[C@H]1Cc1nc(-c2ccc(Oc3ccccc3)cc2)c(C(N)=O)s1 [Example 53]
0.0066 µM	C=CC(=O)N1CCC(n2cc(C(N)=O)c(-c3ccc(Oc4ccccc4)cc3)n2)CC1 [Example 55]
0.015 µM	CC#CC(=O)N1CCC(n2cc(C(N)=O)c(-c3ccc(Oc4ccccc4)cc3)n2)CC1 [Example 56]
0.0032 µM	C=CC(=O)N1CC2(CC(c3nc(-c4ccc(Oc5ccccc5)cc4)c(C(N)=O)s3)C2)C1 [Example 57]
0.0011 µM	CC#CC(=O)N1CC2(CC(c3nc(-c4ccc(Oc5ccccc5)cc4)c(C(N)=O)s3)C2)C1 [Example 58]
0.0089 µM	CC#CC(=O)N1CCC[C@@H](c2nc(-c3ccc(Oc4ccccc4)cc3)c(C(N)=O)[nH]2)C1 [Example 59]
0.041 µM	C=CC(=O)N1CCC[C@@H](n2cc(C(N)=O)c(-c3ccc(NC(=O)Nc4cccc(C)c4)cc3)n2)C1 [Example 60]
0.78 µM	C=CC(=O)N1CCC[C@@H](n2cc(C(N)=O)c(-c3ccc(NS(=O)(=O)c4cccc(Cl)c4Cl)cc3)n2)C1 [Example 61]
0.093 µM	C=CC(=O)N1CCC[C@@H](n2cc(C(N)=O)c(-c3ccc(Oc4ccc(F)cc4)cc3)n2)C1 [Example 62]
0.66 µM	C=CC(=O)N1CCC[C@@H](n2cc(C(N)=O)c(-c3ccc(Oc4ccc(C(F)(F)F)cc4)cc3)n2)C1 [Example 63]
6.5 µM	C=CC(=O)N1CCC[C@@H](n2cc(C(N)=O)c(-c3ccc(Oc4ccc(S(C)(=O)=O)cc4)cc3)n2)C1 [Example 64]
0.33 µM	C=CC(=O)N1CCC[C@@H](n2cc(C(N)=O)c(-c3ccc(Oc4cccc(S(C)(=O)=O)c4)cc3)n2)C1 [Example 65]

IC50	SMILES
0.043 µM	C=CC(=O)N1CCC[C@@H](n2cc(C(N)=O)c(-c3ccc(Oc4ccc(Cl)c(F)c4)cc3)n2)C1 [Example 66]
0.038 µM	C=CC(=O)N1CCC[C@@H](n2cc(C(N)=O)c(-c3ccc(Oc4ccc(OC)cc4)cc3)n2)C1 [Example 67]
0.041 µM	C=CC(=O)N1CCC[C@@H](n2cc(C(N)=O)c(-c3ccc(Oc4cccc(Cl)c4)cc3)n2)C1 [Example 68]
0.043 µM	C=CC(=O)N1CCC[C@@H](n2cc(C(N)=O)c(-c3ccc(Oc4ccc(Cl)c(Cl)c4)cc3)n2)C1 [Example 69]
0.045 µM	C=CC(=O)N1CCC[C@@H](n2cc(C(N)=O)c(-c3ccc(Oc4ccc(Cl)cc4)cc3)n2)C1 [Example 70]
0.014 µM	C=CC(=O)N1CCC[C@@H](n2cc(C(N)=O)c(-c3ccc(Oc4ccc(C)cc4)cc3)n2)C1 [Example 71]
0.004 µM	C=CC(=O)N1CCC[C@@H](n2cc(C(N)=O)c(-c3ccc(Oc4cccc(C)c4)cc3)n2)C1 [Example 72]
0.0093 µM	C=CC(=O)N1CCC[C@@H](n2cc(C(N)=O)c(-c3ccc(Oc4cccc(F)c4)cc3)n2)C1 [Example 73]
6.6 µM	C=CC(=O)N1CCC[C@@H](n2cc(C(N)=O)c(-c3ccc(Oc4ccc(C#N)cc4)cc3)n2)C1 [Example 75]
0.061 µM	C=CC(=O)N1CCC[C@@H](n2cc(C(N)=O)c(-c3ccc(Oc4cccc(C#N)c4)cc3)n2)C1 [Example 76]
0.0019 µM	NC(=O)c1c(-c2ccc(Oc3ccccc3)cc2)nn(C2CC3(C2)CN(C(=O)/C=C/CN2CCOCC2)C3)c1N [Example 77]
0.0064 µM	C=CC(=O)N1CC[C@]2(C1)C[C@@H](c1nc(-c3ccc(Oc4ccccc4)cc3)c(C(N)=O)s1)C2 [Example 79]
0.00093 µM	C=CC(=O)N1CC[C@]2(C1)C[C@H](n1nc(-c3ccc(Oc4ccccc4)cc3)c(C(N)=O)c1N)C2 [Example 80]
0.002 µM	C=CC(=O)N1CCC2(CC1)CC(n1nc(-c3ccc(Oc4ccccc4)cc3)c(C(N)=O)c1N)C2 [Example 82]
0.0021 µM	CC#CC(=O)N1CCC2(CC1)CC(n1nc(-c3ccc(Oc4ccccc4)cc3)c(C(N)=O)c1N)C2 [Example 83]
0.052 µM	C=CC(=O)N1CCC2(CC1)CC(c1nc(-c3ccc(Oc4ccccc4)cc3)c(C(N)=O)s1)C2 [Example 84]
0.3 µM	CC#CC(=O)N1CCC2(CC1)CC(c1nc(-c3ccc(Oc4ccccc4)cc3)c(C(N)=O)s1)C2 [Example 85]
0.095 µM	C=CC(=O)N1CCC2(CC1)CC(n1cc(C(N)=O)c(-c3ccc(Oc4ccccc4)cc3)n1)C2 [Example 86]
0.0043 µM	CC#CC(=O)N1CCC2(CC1)CC(c1nc(-c3ccc(Oc4ccccc4)cc3)c(C(N)=O)[nH]1)C2 [Example 87]
0.021 µM	C=CC(=O)N1CC[C@]2(C1)C[C@@H](n1cc(C(N)=O)c(-c3ccc(Oc4ccccc4)cc3)n1)C2 [Example 88]
0.034 µM	CC#CC(=O)N1CC[C@]2(C1)C[C@@H](n1cc(C(N)=O)c(-c3ccc(Oc4ccccc4)cc3)n1)C2 [Example 89]
0.09 µM	CNC(=O)/C=C/CN1CCC[C@@H](n2cc(C(N)=O)c(-c3ccc(Oc4ccccc4)cc3)n2)C1 [Example 90]
0.00079 µM	CC#CC(=O)N1CC[C@]2(C1)C[C@H](n1nc(-c3ccc(Oc4ccccc4)cc3)c(C(N)=O)c1N)C2 [Example 91]

Reference: patent US10138229B2, “Heteroaromatic compounds as BTK inhibitors” (Boehringer Ingelheim International GmbH, priority 2012, dated 2018)
